Laboratory results taken from PMC6547740, “Potent and specific MTH1 inhibitors targeting gastric cancer” (Cell Death & Disease, 2019).

Assays:
MGC-803 cells [1] = assay: MTT cell viability, MGC-803; assay type: cell-based; settings: Homo sapiens, gastric cancer cell line, 72 h
Protocol: (§1) The cell viability was determined by 3-(4,5-dimethylthiazol-2-yl)-2,5-diphenyltetrazolium bromide (MTT) assay, according to the manufacturer’s instructions. 1 day before treatment, cells were seeded into 96-well plates at a concentration of 2–5 × 10^3 cells per well, followed by treatment with fresh medium containing serial dilutions of candidate compounds for 48 or 72 h, 20 μL of MTT solution (5 mg/mL in PBS) was then added to each well. After treatment, the plates were incubated at 37 °C for another 4 h. Subsequently, the MTT solution was removed and 150 μL of DMSO was added to each well for 10 min, and then the plates were shaken to dissolve the dark blue crystal (formazan), the absorbance was detected at 570 nm using a BioTek microplate reader. The data were analyzed using SPSS 20 software.

HGC-27 cells = assay: Colony formation assay, HGC-27; assay type: cell-based, human; settings: HGC-27, 7 days treatment, compared with DMSO or MI-929
Protocol: The day before treatment, cells were seeded into six-well plates at a concentration of 1 × 10^3 cells per well, and then the media were replaced with fresh media containing serial concentrations of candidate compounds. After 7 days of treatment, the cells were fixed with 75% ethanol, stained with 0.1% crystal violet solution and captured by the microscopy (Leica). After that, the crystal violet crystals were dissolved by adding methanol. The absorbance at 595 nm was measured by a BioTek micro plate reader. In the end, the data were analyzed using the GraphPad Prism 5 software.

MUTYH = target: T1, MUTYH (Homo sapiens, UniProt Q9UIF7); assay: Cellular thermal shift assay (CETSA), MUTYH; assay type: binding; settings: MGC-803 cells, 50 µM compound, heated 10 min from 43 to 61 °C
T1 construct: endogenous in cells; host or cells: MGC-803 (human gastric cancer cell line)
Protocol: (§2) Cellular thermal shift assay (CETSA), also known as the target engagement assay was one-way to detect the intracellular interaction ability of compounds with its specific target. Firstly, cells were seeded into T75 culture flasks and cultured overnight. Then, the cells were treated with cell media containing 1‰ DMSO as blank control and candidate compounds for 3–5 h. Next, the cells were collected by centrifugation and resuspended by PBS, then the cells were aliquoted into 7 PCR tubes and heated using PCR instrument for 10 min from 43 to 61 °C. After that, cells were lysed using liquid nitrogen and three repeated cycles of freeze-thawing. Then, samples were centrifuged at 12,000 × g for 20 min at 4 °C. Supernatants were denatured at 100 °C for 10 min and kept at −20 °C until Western Blot analysis.

H1975 cells = assay: MTT cell viability, H1975; assay type: cell-based; settings: Homo sapiens, NCI-H1975, 72 h
Protocol: as §1

EC109 cells = assay: MTT cell viability, EC109; assay type: cell-based; settings: Homo sapiens, ECa-109, esophageal cancer cell line, 72 h
Protocol: as §1

OGG1 = target: T2, OGG1 (Homo sapiens, UniProt O15527); assay: Cellular thermal shift assay (CETSA), OGG1; assay type: binding; settings: MGC-803 cells, 50 µM compound, heated 10 min from 43 to 61 °C
T2 construct: endogenous in cells; host or cells: MGC-803 (human gastric cancer cell line)
Protocol: as §2

MTH1 [2] = target: T3, MTH1 (Homo sapiens, UniProt P36639); assay: MTH1 recombinant protein activity / inhibitor screening (malachite green); assay type: biochemical; set-up: His-tag; made in house; host or cells: E. coli BL21(DE3); settings: 5 nM recombinant MTH1, dGTP substrate, absorbance 630 nm; read-out: IC50 (MTH1 inhibition)
Protocol: On the basis of the ability of MTH1 in converting dGTP to dGMP and pyrophosphate, and the latter can then be hydrolyzed to […] by inorganic pyrophosphatase, the MTH1 activity was designed to measure the product of […], after its reaction with malachite green and ammonium molybdate(Fig. 2l), the green associated complex was measured at 630 nm by PerkinElmer Envision microplate reader.
Firstly, the assay buffer (100 mM Tris-acetate at pH 8.0, 40 mM NaCl, 10 mM Mg-acetate, 0.005% Tween 20 and 1 mM DTT) was added into a 96-well plate. Then, 5 nM recombinant human MTH1, […] dGTP and 0.2U/ml […] were added in sequence. After 60 min reaction, the mixture of 0.45 mg/mL malachite green and 4.2% ammonium molybdate in proportion of 3:1 were added. Then, the plates were incubated and shaken at room temperature for another 60 min. The absorbance was measured at 630 nm using the PerkinElmer Envision micro plate reader.

MGC-803 cells [3] = assay: Western blot of DNA damage response markers, MGC-803; assay type: cell-based, human; settings: MGC-803, 1-12 µM 48 h or 12 µM 12-48 h, dose and time-dependently, vs DMSO
Protocol: MGC-803, HGC-27 and GES-1 cells were seeded into 100mm^2 plastic dishes(1 × 10^5 cells/well) and incubated overnight prior to the addition of compound MI-743 at 1, 2, 4, 8 and 12 µM for 48 h or compound MI-743 at 12 µM for 12, 24, 36 and 48 h, respectively. After treatment, the cells were harvested and lysed with RIPA cell lysis buffer, containing protease inhibitor cocktail. Then, the cells were centrifuged at 12,000 × g for 20 min at 4 °C. The supernatant were collected and the concentration was determined by a Bicinchoninic Acid (BCA) Protein Assay kit, denatured at 100 °C for 10 min, separated by SDS−PAGE and transferred to 0.22 μm nitrocellulose membranes. After blocking by PBS containing 5% skim milk for 2 h at room temperature, the membranes were probed with the appropriate primary antibodies (1:500~1:1000) at 4 °C overnight, followed by the treatment of horseradish-peroxidase-conjugated secondary antibody (1:10000) at room temperature for 2 h. Subsequently, the membranes were washed with PBST, examined by enhanced chemiluminescence and the data was determined using Image J software.

MTH2 = target: T4, MTH2 (Homo sapiens, UniProt Q9NV35); assay: Cellular thermal shift assay (CETSA), MTH2; assay type: binding; settings: MGC-803 cells, 50 µM compound, heated 10 min from 43 to 61 °C
T4 construct: endogenous in cells; host or cells: MGC-803 (human gastric cancer cell line)
Protocol: as §2

MTH1 [4] = target: T3, MTH1; assay: Cellular thermal shift assay (CETSA), MTH1; assay type: binding; set-up: endogenous in cells; host or cells: MGC-803 (human gastric cancer cell line); settings: MGC-803 cells, 50 µM compound, heated 10 min from 43 to 61 °C, western blot
Protocol: as §2

T2 sequence (O15527 whole entry): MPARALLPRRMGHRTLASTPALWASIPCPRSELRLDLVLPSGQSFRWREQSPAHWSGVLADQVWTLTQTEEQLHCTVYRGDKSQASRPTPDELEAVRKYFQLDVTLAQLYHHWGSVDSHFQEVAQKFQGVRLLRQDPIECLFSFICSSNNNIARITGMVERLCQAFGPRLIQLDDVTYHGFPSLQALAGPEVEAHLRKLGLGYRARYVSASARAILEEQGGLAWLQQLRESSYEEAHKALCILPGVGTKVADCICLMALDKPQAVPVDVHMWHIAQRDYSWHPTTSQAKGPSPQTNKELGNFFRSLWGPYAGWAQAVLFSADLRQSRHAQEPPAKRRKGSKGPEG
T4 sequence (Q9NV35 whole entry): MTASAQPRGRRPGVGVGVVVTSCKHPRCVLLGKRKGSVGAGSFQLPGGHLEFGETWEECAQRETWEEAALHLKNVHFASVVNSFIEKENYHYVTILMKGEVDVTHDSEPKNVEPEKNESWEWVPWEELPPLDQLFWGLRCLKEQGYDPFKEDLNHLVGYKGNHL
T1 sequence (Q9UIF7 whole entry): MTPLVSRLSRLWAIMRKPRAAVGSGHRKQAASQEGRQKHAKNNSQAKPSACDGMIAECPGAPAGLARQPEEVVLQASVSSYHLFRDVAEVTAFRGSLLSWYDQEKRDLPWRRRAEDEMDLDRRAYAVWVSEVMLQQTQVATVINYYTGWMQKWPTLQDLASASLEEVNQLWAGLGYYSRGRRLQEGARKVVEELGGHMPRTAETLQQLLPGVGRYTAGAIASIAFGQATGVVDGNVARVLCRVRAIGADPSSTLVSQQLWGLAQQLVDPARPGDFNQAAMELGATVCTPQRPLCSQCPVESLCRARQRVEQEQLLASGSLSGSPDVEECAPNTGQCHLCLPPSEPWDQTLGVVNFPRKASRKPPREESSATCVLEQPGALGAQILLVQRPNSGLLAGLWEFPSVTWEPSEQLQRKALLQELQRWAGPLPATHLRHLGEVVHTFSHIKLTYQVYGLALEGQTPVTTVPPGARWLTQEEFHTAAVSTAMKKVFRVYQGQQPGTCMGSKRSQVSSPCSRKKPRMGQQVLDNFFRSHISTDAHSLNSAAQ

IC50 (MGC-803 cells [1]): 2910 ± 460 nM
temperature at which MUTYH became unstable (MUTYH): 49 °C
IC50 (H1975 cells): 15.1 ± 1.18 µM
temperature at which OGG1 became unstable (OGG1): 49 °C
IC50 (MTH1 [2]): 91.4 ± 1.45 nM
temperature at which MTH2 became unstable (MTH2): 49 °C
incubation temperature until which MTH1 was stable (MTH1 [4]): 61 °C
Structure (SMILES): C#CCSc1nc(NNC(N)=S)c(C#N)c(-c2ccc3oc(=O)ccc3c2)n1 [MI-743, 2-(5-cyano-6-(2-oxo-2H-chromen-6-yl)-2-(prop-2-yn-1-ylthio)pyrimidin-4-yl)hydrazine-1-carbothioamide]
colony formation (HGC-27 cells): smaller and fewer colonies
IC50 (EC109 cells): 6.99 ± 0.84 µM
expression levels of p53pS15, ATMpS1981 and p21 (MGC-803 cells [3]): significantly increased
